# What was measured:
# Wistar rats [1] = assay: Glucose challenge test and body weight in rats on high fat/high cholesterol diet, water with DDA at 1% of caloric intake; assay type: in vivo
# Text: (§1) Animal Studies. All in vivo studies used Wistar rats that were kept for 9 weeks on a high fat/high cholesterol diet. The animals were then separated into two groups, a control group that continued the high fat/high cholesterol diet with regular water, whereas the treatment group continued the high fat/high cholesterol diet with water containing DDA (dodecanedioic acid) in an amount of 1% of the caloric intake. After all animals were separated in the respective test groups, body weights were recorded, and a glucose challenge test administered. […] Such effect is particularly unexpected as the quantity of DDA in the food was well below any quantity that was reasonably expected.
# Wistar rats [2] = assay: Liver histology (H&E, red oil ORO, Sirius red) in rats on high fat/high cholesterol diet with or without DDA; assay type: in vivo
# Text: as §1
# While not wishing to be bound by any specific theory or hypothesis, the inventors contemplate that the DDA at the low levels inhibits the trans-differentiation of hepatic stellate cells to myofibroblasts that produce extracellular matrix proteins (including collagen), likely by protecting them from damage due to reactive oxygen species (ROS).
# [3] = system: liver cells (AML-12 cells); assay: Total antioxidant capacity in liver cells; assay type: cell-based; details: AML-12 liver cells, in the presence of hydrogen peroxide
# Text: (§2) To that end, the inventors used endothelial cells (EOMA cells) and liver cells (AML-12 cells) in vitro and quantified various markers in response to exposure of the cells to environmental challenge in the presence and absence of DDA at low concentrations. Unless indicated otherwise, the DDA concentration in the in vitro experiments was 5 mcg per microliter. More specifically, the inventors measured p-H2AX protein levels as a marker for DNA damage, PGC-1α protein levels as a marker for mitochondrial biogenesis, NAMPT enzyme levels as a marker for potential for NAD+ production, and total antioxidant capacity as a marker of cellular health. In addition, the inventors also measured global SIRT activity as a gauge of activity for all SIRT enzymes, and in particular SIRT1 enzyme levels as markers for autophagy and various beneficial processes associated with a caloric restricted diet, and SIRT3 levels as markers for mitochondrial function and longevity.
# NAMPT = NAMPT enzyme levels in liver cells; assay type: cell-based; details: AML-12 liver cells
# Text: as §2
# To evaluate the effect of DDDA on energy metabolism, and particularly on NAD+ synthesis, the inventors also tested the effect of DDDA on NAMPT in liver cells.
# [4] = system: endothelial cells (EOMA cells); assay: Total antioxidant capacity in endothelial cells; assay type: cell-based; details: 24 hours, in the presence of hydrogen peroxide, p=0.001
# Text: as §2
# In yet a further series of experiments, the inventors also sought to confirm whether or not DDDA would have a modulatory effect in endothelial cells using the same markers and experimental conditions as noted above.
# With respect to antioxidant capacity, FIG. 12 depicts exemplary results. […] N=5-6 plates per treatment.
# liver of rats = assay: qReal time-PCR gene expression in the liver of rats from in vivo study 1 and 2; design: species or system Wistar rats
# Experimental: Panels A and B. • Study 1: Twenty adult Wistar rats, aged 8-10 weeks, were included in the study. The rats were housed in individual cages at 22° C. with 12-h light cycles and had ad libitum access to food and water. Rats were fed a high fat high cholesterol diet (44% Carbohydrate, 14% Protein, 42% fat+0.2% Cholesterol) for 4 weeks in the presence or absence of 1% Dodecanedioic acid, sodium salt dissolved in the water (FIG. 25, Panel A). Body weight and food/water intake were monitored weekly. • Study 2: Twenty adult Wistar rats, aged 8-10 weeks, were included in the study. The rats were housed in individual cages at 22° C. with 12-h light cycles and had ad libitum access to food and water. Rats were fed a high fat-high cholesterol diet (44% Carbohydrate, 14% Protein, 42% fat+0.2% Cholesterol). After 9 weeks of diet, rats were randomly assigned to one of the following groups: 4 weeks of high fat-high cholesterol diet or 4 weeks of high fat-high cholesterol diet and 1% Dodecanedioic acid, sodium salt dissolved in the water (FIG. 25, Panel B). Body weight and food/water intake were monitored weekly.
# Total RNA from human primary hepatocytes was extracted using the RNeasy Plus Mini Kit according to the indications provided by the company. A small aliquot of total RNA obtained (3 μl) was subjected to qualitative and quantitative control by using the microdrop. The qualitative and quantitative assessment of the individual samples was determined using a dedicated software. The total RNA was reverse transcribed into cDNA by using iScript RT. SYBR Green gene expression assays were performed according to the manufacturer's instruction using the iQTMSYBR Green Supermix and the CFX96 Touch Real-Time PCR Detection System. For this purpose, the following pairs of primer were used: solute carrier family 13 member 5 (SLC13A5) (forward 5′ […] 3′ (SEQ ID NO:1) and reverse 5′ […] 3′ (SEQ ID NO:2)), Diacylglycerol O-Acyltransferase 1 (DGAT1) (forward 5′ […] 3′ (SEQ ID NO:3) and reverse 5′ […] 3′ (SEQ ID NO:4)), Fatty Acid Synthase (FASN) (forward 5′ […] 3′ (SEQ ID NO:5) and reverse 5′ […] 3′ (SEQ ID NO:6)), carnitine palmitoyltransferase 1A (CPT1A) (forward 5′ […] 3′ (SEQ ID NO:7) and reverse 5′ […] 3′ (SEQ ID NO:8)) and Acetyl-CoA carboxylase (ACC1) (forward 5′ […] 3′ (SEQ ID NO:9) and reverse 5′ […] 3′ (SEQ ID NO:10)). mRNA expression levels were normalized to B2-microglobulin (forward 5′[…] 3′ (SEQ ID NO:11); and reverse 5′[…] 3′ (SEQ ID NO:12)) and quantification of relative gene expression, presented as percentage of the relevant baseline, was calculated using the 2-ACT (comparative threshold) method.
# C12 decrease de novo lipogenesis and an increase in fatty acid oxidation in vitro and in vivo: To test the hypothesis that C12 could affect de novo lipogenesis and fatty acid beta-oxidation, human primary hepatocytes were stimulated with palmitic acids (0.4 mM) in the presence or absence of C12 1% (v/w). […] Similar results were also observed in our in vivo experiments. […] Data from in vivo study 1 and 2 were pooled together.
# [5] = relatively large oral doses (>20 g); cited from earlier work
# [6] = in vivo study 1 and 2 pooled, vs control group
# [7] = rats from in vivo study 1 and 2, vs control group
structure (smiles),measurement,setting,value
"O=C(O)CCCCCCCCCCC(=O)O [DDDA, dodecanedioic acid]",AUC blood glucose in glucose challenge,Wistar rats [1],significantly reduced
same,blood glucose spike in glucose challenge,Wistar rats [1],significantly blunted
same,liver tissue morphology under H&E stain,Wistar rats [2]; high fat/high cholesterol diet with DDA vs without,significantly closer to normal liver histology
same,"fatty deposits in liver tissue, red oil (ORO) stain",Wistar rats [2]; high fat/high cholesterol diet with low quantities of DDA,normal or near-normal microscopic appearance
same,"fibrosis (Sirius red, hepatic collagen): rats without DDA compared to rats with DDA","Wistar rats [2]; high fat/high cholesterol diet, DDA at low concentrations",significantly increased fibrosis as compared to those rats where the diet included DDA at low concentrations
same,"hepatoprotective effect (histopathology, overall)",Wistar rats [2]; low concentration of DDA in high fat/high cholesterol diet,substantial hepatoprotective effect
same,cellular total antioxidant capacity,"[3]; 6 hours, 5 mcg per microliter, p=0.001",maintains cellular total antioxidant capacity
same,cellular total antioxidant capacity,"[3]; 24 hours, same trend as 6 hours",did not reach a level of significance
same,NAMPT enzyme levels,"NAMPT; 6 hours, p=0.001",significantly increased
same,NAMPT enzyme levels,"NAMPT; 24 hours, pattern relative to 6 hours",paradoxically reversed
same,cellular total antioxidant capacity,[4],maintained
same,ACC1 (de novo lipogenesis enzyme) in liver,liver of rats; [6],decrease
same,CPT1A (fatty acid beta-oxidation enzyme) in liver,liver of rats; [6],significant increase
same,DGAT (de novo lipogenesis enzyme) in liver,liver of rats; [6],decrease
same,FASN (de novo lipogenesis enzyme) in liver,liver of rats; [6],decrease
same,gene expression of citrate transporter SLC13A5 in liver,liver of rats; [6],decrease
same,COLA1A gene expression in liver,liver of rats; [7],decreased expression
same,TGFβ gene expression in liver,liver of rats; [7],decreased expression
same,αSMA gene expression in liver,liver of rats; [7],decreased expression
same,effect on blood glucose in healthy individuals,[5],no corresponding effects
same,effect on blood glucose in individuals diagnosed with NIDDM,[5],hypoglycemic effect
